Source: patent publication US9938270B2, “Mono-phosphate salt of 6-fluoro-2-[4-(pyridin-2-yl)but-3-yn-1-yl]imidazo[1,2A]pyridine (dipraglurant) and polymorphs thereof as negative allosteric modulator of MGLU5 receptor” (Addex Pharma S.A., priority 2013, dated 2018)
Values after ≈ are worked out from the molar mass of the structure shown.

Assay: aqueous solubility
Assay type: physicochemical
Details: aqueous medium, aqueous buffer; at all relevant physiological pH

| solubility [mg/mL] | SMILES |
| --- | --- |
| 0.5 (≈ 1880 µM) | Fc1ccc2nc(CCC#Cc3ccccn3)cn2c1 [free base, 6-Fluoro-2-[4-(pyridin-2-yl)but-3-yn-1-yl]imidazo[1,2-a]pyridine] |
| 21 to 32.5 | Fc1ccc2nc(CCC#Cc3ccccn3)cn2c1.O=P(O)(O)O [mono-phosphate salt, 6-fluoro-2-[4-(pyridin-2-yl)but-3-yn-1-yl]imidazo[1,2-a]pyridine mono-phosphate salt] |
